# Test system: 996289-038-R-J1-PDC spheroid viability
# Assay: Anticancer human tumor 996289-038-R-J1-PDC patient-derived colon adenocarcinoma cell line growth inhibition [PI3K]
# Settings: spheroids with HUVEC and MSC; for IC50: curve of first compound; for viability, T/C: stronger effect = lower value
# In short: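 Spheroid viability read-out. Co-cultures contained the tumor line plus HUVEC and human MSCs. Each agent was paired with a PI3K inhibitor (inavolisib, alpelisib, duvelisib, copanlisib) across half-log dilutions starting at clinical Cmax, or at 10 microM when Cmax was unknown.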
# 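Further: spheroids exposed to compounds for seven days before viability read.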
# 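Wherever viability, T/C is given: luminescence used as a proxy for viable cell amount; percent viability relative to DMSO vehicle control as 100%.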
structure (smiles),measurement,setting,value
Cn1cnc2c(F)c(Nc3ccc(Br)cc3Cl)c(C(=O)NOCCO)cc21 + Cc1nc(NC(=O)N2CCCC2C(N)=O)sc1-c1ccnc(C(C)(C)C(F)(F)F)c1,IC50,second compound 0.0316 µM,148 nM
same,IC50,second compound 0.1 µM,114 nM
same,IC50,second compound 0.316 µM,59.4 nM
same,IC50,second compound 1 µM,24.8 nM
same,IC50,second compound 3.16 µM,13.5 nM
same,IC50,second compound 10 µM,< 9.49 nM
same,"viability, T/C","second compound 0.0316 µM, first compound 0.00949 µM",73%
same,"viability, T/C","second compound 0.0316 µM, first compound 0.03 µM",64.4%
same,"viability, T/C","second compound 0.0316 µM, first compound 0.0949 µM",54.4%
same,"viability, T/C","second compound 0.0316 µM, first compound 0.3 µM",42.5%
same,"viability, T/C","second compound 0.0316 µM, first compound 0.949 µM",33.8%
same,"viability, T/C","second compound 0.0316 µM, first compound 3 µM",23.6%
same,"viability, T/C","second compound 0.1 µM, first compound 0.00949 µM",76.7%
same,"viability, T/C","second compound 0.1 µM, first compound 0.03 µM",70.4%
same,"viability, T/C","second compound 0.1 µM, first compound 0.0949 µM",48.6%
same,"viability, T/C","second compound 0.1 µM, first compound 0.3 µM",38.6%
same,"viability, T/C","second compound 0.1 µM, first compound 0.949 µM",30.4%
same,"viability, T/C","second compound 0.1 µM, first compound 3 µM",20.5%
same,"viability, T/C","second compound 0.316 µM, first compound 0.00949 µM",76.2%
same,"viability, T/C","second compound 0.316 µM, first compound 0.03 µM",60.6%
same,"viability, T/C","second compound 0.316 µM, first compound 0.0949 µM",41.9%
same,"viability, T/C","second compound 0.316 µM, first compound 0.3 µM",32%
same,"viability, T/C","second compound 0.316 µM, first compound 0.949 µM",26.5%
same,"viability, T/C","second compound 0.316 µM, first compound 3 µM",20.1%
same,"viability, T/C","second compound 1 µM, first compound 0.00949 µM",58.2%
same,"viability, T/C","second compound 1 µM, first compound 0.03 µM",50.5%
same,"viability, T/C","second compound 1 µM, first compound 0.0949 µM",35.3%
same,"viability, T/C","second compound 1 µM, first compound 0.3 µM",29.4%
same,"viability, T/C","second compound 1 µM, first compound 0.949 µM",22.1%
same,"viability, T/C","second compound 1 µM, first compound 3 µM",14.8%
same,"viability, T/C","second compound 3.16 µM, first compound 0.00949 µM",55.3%
same,"viability, T/C","second compound 3.16 µM, first compound 0.03 µM",39.1%
same,"viability, T/C","second compound 3.16 µM, first compound 0.0949 µM",30.1%
same,"viability, T/C","second compound 3.16 µM, first compound 0.3 µM",22.2%
same,"viability, T/C","second compound 3.16 µM, first compound 0.949 µM",16.8%
same,"viability, T/C","second compound 3.16 µM, first compound 3 µM",8.81%
same,"viability, T/C","second compound 10 µM, first compound 0.00949 µM",31.3%
same,"viability, T/C","second compound 10 µM, first compound 0.03 µM",24.8%
same,"viability, T/C","second compound 10 µM, first compound 0.0949 µM",19.1%
same,"viability, T/C","second compound 10 µM, first compound 0.3 µM",14%
same,"viability, T/C","second compound 10 µM, first compound 0.949 µM",9.2%
same,"viability, T/C","second compound 10 µM, first compound 3 µM",5.22%
C[C@@H](NC(=O)c1ncnc(N)c1Cl)c1ncc(C(=O)Nc2cc(C(F)(F)F)c(Cl)cn2)s1 + CC(Nc1ccc2c(c1)OCCn1cc(N3C(=O)OCC3C(F)F)nc1-2)C(N)=O,IC50,second compound 0.00316 µM,> 10000 nM
same,IC50,second compound 0.01 µM,> 10000 nM
same,IC50,second compound 0.0316 µM,> 10000 nM
same,IC50,second compound 0.1 µM,> 10000 nM
same,IC50,second compound 0.316 µM,> 10000 nM
same,IC50,second compound 1 µM,> 10000 nM
same,"viability, T/C","second compound 0.00316 µM, first compound 0.0316 µM",115%
same,"viability, T/C","second compound 0.00316 µM, first compound 0.1 µM",124%
same,"viability, T/C","second compound 0.00316 µM, first compound 0.316 µM",129%
same,"viability, T/C","second compound 0.00316 µM, first compound 1 µM",123%
same,"viability, T/C","second compound 0.00316 µM, first compound 3.16 µM",135%
same,"viability, T/C","second compound 0.00316 µM, first compound 10 µM",122%
same,"viability, T/C","second compound 0.01 µM, first compound 0.0316 µM",119%
same,"viability, T/C","second compound 0.01 µM, first compound 0.1 µM",124%
same,"viability, T/C","second compound 0.01 µM, first compound 0.316 µM",107%
same,"viability, T/C","second compound 0.01 µM, first compound 1 µM",139%
same,"viability, T/C","second compound 0.01 µM, first compound 3.16 µM",140%
same,"viability, T/C","second compound 0.01 µM, first compound 10 µM",122%
same,"viability, T/C","second compound 0.0316 µM, first compound 0.0316 µM",116%
same,"viability, T/C","second compound 0.0316 µM, first compound 0.1 µM",103%
same,"viability, T/C","second compound 0.0316 µM, first compound 0.316 µM",111%
same,"viability, T/C","second compound 0.0316 µM, first compound 1 µM",120%
same,"viability, T/C","second compound 0.0316 µM, first compound 3.16 µM",128%
same,"viability, T/C","second compound 0.0316 µM, first compound 10 µM",111%
same,"viability, T/C","second compound 0.1 µM, first compound 0.0316 µM",93.7%
same,"viability, T/C","second compound 0.1 µM, first compound 0.1 µM",93.1%
same,"viability, T/C","second compound 0.1 µM, first compound 0.316 µM",91.7%
same,"viability, T/C","second compound 0.1 µM, first compound 1 µM",119%
same,"viability, T/C","second compound 0.1 µM, first compound 3.16 µM",107%
same,"viability, T/C","second compound 0.1 µM, first compound 10 µM",110%
same,"viability, T/C","second compound 0.316 µM, first compound 0.0316 µM",70%
same,"viability, T/C","second compound 0.316 µM, first compound 0.1 µM",87.6%
same,"viability, T/C","second compound 0.316 µM, first compound 0.316 µM",87.2%
same,"viability, T/C","second compound 0.316 µM, first compound 1 µM",105%
same,"viability, T/C","second compound 0.316 µM, first compound 3.16 µM",109%
same,"viability, T/C","second compound 0.316 µM, first compound 10 µM",83.3%
same,"viability, T/C","second compound 1 µM, first compound 0.0316 µM",68%
same,"viability, T/C","second compound 1 µM, first compound 0.1 µM",78.1%
same,"viability, T/C","second compound 1 µM, first compound 0.316 µM",57.8%
same,"viability, T/C","second compound 1 µM, first compound 1 µM",81.9%
same,"viability, T/C","second compound 1 µM, first compound 3.16 µM",85.6%
same,"viability, T/C","second compound 1 µM, first compound 10 µM",65.3%

# Reference: PubChem BioAssay AID1963965 (Molecular Pharmacology Branch, DTP, NCI, 2024)
